The assay has as its target T1, mAChR M4 (UniProt P08173).
T1 construct: hM1 and hM4 cDNAs were purchased from Missouri S&T cDNA Resource
T1 sequence (P08173 1-479): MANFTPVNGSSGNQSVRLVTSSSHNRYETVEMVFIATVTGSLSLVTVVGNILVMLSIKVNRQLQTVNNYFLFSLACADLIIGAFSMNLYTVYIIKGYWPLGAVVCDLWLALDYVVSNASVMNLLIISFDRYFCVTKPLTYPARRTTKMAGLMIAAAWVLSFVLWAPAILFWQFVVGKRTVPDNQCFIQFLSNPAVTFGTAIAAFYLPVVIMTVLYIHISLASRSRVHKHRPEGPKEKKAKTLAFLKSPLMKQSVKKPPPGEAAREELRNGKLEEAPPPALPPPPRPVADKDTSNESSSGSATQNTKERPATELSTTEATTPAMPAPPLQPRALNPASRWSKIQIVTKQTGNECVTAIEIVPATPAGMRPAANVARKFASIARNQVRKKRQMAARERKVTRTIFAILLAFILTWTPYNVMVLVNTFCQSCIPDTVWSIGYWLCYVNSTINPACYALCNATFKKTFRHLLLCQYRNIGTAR
Nature of the assay: mAChR M4 cell-based functional assay (calcium mobilization, Fluo-4, FDSS). The settings on record: for pEC50: positive allosteric modulator activity, EC20 acetylcholine response; for pEC50 / EC50: CHO-K1 cells; for EC50: positive allosteric modulator activity: concentration-dependent increase in the EC20 acetylcholine response, >10 μM estimated for low potency (no plateau); for Emax (%)*: % ACh maximum at 30 μM. The method, boiled down:
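CHO-K1 cells stably expressing hM4 or rM4 with chimeric Gqi5, loaded with Fluo-4 AM for 50 min at 37° C. Calcium read on FDSS 6000 over 300 s: compound added at 4 s, acetylcholine EC20 at 144 s and EC80 at 230 s. Agonist, PAM (EC20 increase) and antagonist (EC80 decrease) values fitted by four-parameter logistic.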

The source of these data is patent US9056876B2, “Substituted 1H-pyrazolo[3′,4′,4,5]thieno[2,3-b]pyridin-3-amine analogs as positive allosteric modulators of the muscarinic acetylcholine receptor M4” (VANDERBILT UNIVERSITY, priority 2011, dated 2015).

A word on the pEC50: it is the negative decadic logarithm of the EC50, by convention in mol/L. The term EC50 denotes the midpoint of the concentration-response curve. As to `Cc1ccc2c(n1)sc1c(NCCC(C)C)n[nH]c12` [Compound 156, N-isopentyl-6-methyl-1H-pyrazolo[3′,4′:4,5]thieno[2,3-b]pyridin-3-amine], the pEC50 is listed as less than 5.00 and the EC50 is greater than 10 µM.

Regarding `Cc1ccc2c(n1)sc1c(NC(=O)c3ccccc3)n[nH]c12` [Compound 150, N-(6-methyl-1H-pyrazolo[3′,4′:4,5]thieno[2,3-b]pyridin-3-yl)benzamide], the pEC50 was less than 5.00 and the EC50 is greater than 10 µM.

With `Cc1cc(C)c2c(n1)sc1c(NC3CCC(N)CC3)n[nH]c12` (centres unmarked) [Compound 138, N1-(6,8-dimethyl-1H-pyrazolo[3′,4′:4,5]thieno[2,3-b]pyridin-3-yl)cyclohexane-1,4-diamine], the pEC50 was less than 5.00 and the EC50 is greater than 10 µM.

For the compound `Cc1csc(CNc2nn(C)c3c2sc2nc(C)cc(C)c23)n1` [Compound 98, 1,6,8-trimethyl-N-((4-methylthiazol-2-yl)methyl)-1H-pyrazolo[3′,4′:4,5]thieno[2,3-b]pyridin-3-amine], the “Emax (%)*” value is reported as 53%, the negative-log EC50 (pEC50) came out at 6.28 and the half-maximal effective concentration (EC50) was 0.52 µM.

For `Cc1cc(C)c2c(n1)sc1c(NCC(C)C)n[nH]c12` [Compound 37, N-isobutyl-6,8-dimethyl-1H-pyrazolo[3′,4′:4,5]thieno[2,3-b]pyridin-3-amine], the “Emax (%)*” value is 53%, the pEC50 is recorded as 5.43 and the 50% effective concentration (EC50) was 3.7 µM.

Turning to `Cc1nc2sc3c(NCc4ccc(F)c(F)c4)nn(C)c3c2c(C)c1Cl` [Compound 27, 7-chloro-N-(3,4-difluorobenzyl)-1,6,8-trimethyl-1H-pyrazolo[3′,4′:4,5]thieno[2,3-b]pyridin-3-amine], the “Emax (%)*” value is 46%, the pEC50 was less than 5.00 and the 50% effective concentration (EC50) was greater than 10 µM.

In the case of `COc1cccc(C(=O)Nc2n[nH]c3c2sc2nc(C)cc(C)c23)c1` [Compound 127, N-(6,8-dimethyl-1H-pyrazolo[3′,4′:4,5]thieno[2,3-b]pyridin-3-yl)-3-methoxybenzamide], the negative-log EC50 (pEC50) is on record as less than 5.00 and the half-maximal effective concentration (EC50) is greater than 10 µM.

In the case of `COc1ccc(Cn2nc(N(C)C)c3sc4nc(C)cc(C)c4c32)cc1` [Compound 155, 1-(4-methoxybenzyl)-N,N,6,8-tetramethyl-1H-pyrazolo[3′,4′:4,5]thieno[2,3-b]pyridin-3-amine], the pEC50 was less than 5.00 and the EC50 was greater than 10 µM.

As to `Cc1cc(C)c2c(n1)sc1c(NC3CN(C(=O)OC(C)(C)C)C3)nn(C)c12` [Compound 106, tert-butyl 3-((1,6,8-trimethyl-1H-pyrazolo[3′,4′:4,5]thieno[2,3-b]pyridin-3-yl)amino)azetidine-1-carboxylate], the “Emax (%)*” value came to 73%, the pEC50 is on record as 7.57 and the concentration giving a half-maximal response (EC50) is 0.027 µM.

Turning to `Cc1nc2sc3c(NCCC(C)C)nn(C)c3c2c(C)c1Cl` [Compound 24, 7-chloro-N-isopentyl-1,6,8-trimethyl-1H-pyrazolo[3′,4′:4,5]thieno[2,3-b]pyridin-3-amine], the “Emax (%)*” value came out at 61%, the pEC50 is listed as less than 5.00 and the EC50 is greater than 10 µM.

Turning to `Cc1cc(C)c2c(n1)sc1c(NC3CCCCC3)nn(C)c12` [Compound 66, N-cyclohexyl-1,6,8-trimethyl-1H-pyrazolo[3′,4′:4,5]thieno[2,3-b]pyridin-3-amine], the “Emax (%)*” value came to 73%, the negative-log EC50 (pEC50) is 5.92 and the concentration for a half-maximal effect (EC50) was 1.2 µM.

With `COc1ccc(CNc2nn(C)c3c2sc2nccc(C)c23)cc1` [Compound 63, N-(4-methoxybenzyl)-1,8-dimethyl-1H-pyrazolo[3′,4′:4,5]thieno[2,3-b]pyridin-3-amine], the “Emax (%)*” value came out at 80%, the pEC50 worked out at 5.77 and the EC50 was 1.7 µM.

For `Cc1cc(C)c2c(n1)sc1c(NC3CCN(C)CC3)nn(C)c12` [Compound 74, 1,6,8-trimethyl-N-(1-methylpiperidin-4-yl)-1H-pyrazolo[3′,4′:4,5]thieno[2,3-b]pyridin-3-amine], the “Emax (%)*” value was determined as 52%, the negative logarithm of the EC50 (pEC50) worked out at 5.52 and the EC50 was 3 µM.

Consider `COC(=O)Cn1nc(NCc2ccc(S(C)(=O)=O)cc2)c2sc3nc(C)cc(C)c3c21` [Compound 117, methyl 2-(6,8-dimethyl-3-((4-(methylsulfonyl)benzyl)amino)-1H-pyrazolo[3′,4′:4,5]thieno[2,3-b]pyridin-1-yl)acetate], for which the “Emax (%)*” value was 40%, the negative logarithm of the EC50 (pEC50) was less than 5.00 and the concentration giving a half-maximal response (EC50) is greater than 10 µM.

As to `Cc1nc2sc3c(NCc4ccc(F)c(F)c4)n[nH]c3c2c(C)c1Cl` [Compound 146, 7-chloro-N-(3,4-difluorobenzyl)-6,8-dimethyl-1H-pyrazolo[3′,4′:4,5]thieno[2,3-b]pyridin-3-amine], the pEC50 is given as less than 5.00 and the EC50 is greater than 10 µM.

`Cc1cc(C)cc(CNc2nn(C)c3c2sc2nc(C)cc(C)c23)c1` [Compound 58, N-(3,5-dimethylbenzyl)-1,6,8-trimethyl-1H-pyrazolo[3′,4′:4,5]thieno[2,3-b]pyridin-3-amine]: the “Emax (%)*” value turned out to be 37%, the negative-log EC50 (pEC50) was less than 5.00 and the EC50 is greater than 10 µM.

As for `Cc1cc(C)c2c(n1)sc1c(NCc3ccc(C#N)c(F)c3)nn(C)c12` [Compound 90, 2-fluoro-4-(((1,6,8-trimethyl-1H-pyrazolo[3′,4′:4,5]thieno[2,3-b]pyridin-3-yl)amino)methyl)benzonitrile], the “Emax (%)*” value came to 52%, the negative-log EC50 (pEC50) stood at 6.60 and the EC50 is 0.25 µM.

For `Cc1ccnc2sc3c(NCc4ccco4)nn(C)c3c12` [Compound 71, N-(furan-2-ylmethyl)-1,8-dimethyl-1H-pyrazolo[3′,4′:4,5]thieno[2,3-b]pyridin-3-amine], the “Emax (%)*” value came out at 66%, the pEC50 is 6.00 and the 50% effective concentration (EC50) is 1 µM.

Consider `Cc1cc(C)c2c(n1)sc1c(NCc3ccco3)nn(C)c12` [Compound 40, N-(furan-2-ylmethyl)-1,6,8-trimethyl-1H-pyrazolo[3′,4′:4,5]thieno[2,3-b]pyridin-3-amine], for which the “Emax (%)*” value was 85%, the pEC50 is 6.96 and the EC50 is 0.11 µM.

As for `Cc1cc(C)c2c(n1)sc1c(NC3CCSC3)nn(CCO)c12` (centres unmarked) [Compound 109, 2-(6,8-dimethyl-3-((tetrahydrothiophen-3-yl)amino)-1H-pyrazolo[3′,4′:4,5]thieno[2,3-b]pyridin-1-yl)ethanol], the “Emax (%)*” value came to 68%, the pEC50 is listed as 6.70 and the EC50 is 0.2 µM.

`Cc1cc(C)c2c(n1)sc1c(NCC3CCCO3)nn(C)c12` (centres unmarked) [Compound 83, 1,6,8-trimethyl-N-((tetrahydrofuran-2-yl)methyl)-1H-pyrazolo[3′,4′:4,5]thieno[2,3-b]pyridin-3-amine]: the “Emax (%)*” value is listed as 52%, the pEC50 is recorded as 6.02 and the half-maximal effective concentration (EC50) is 0.96 µM.

As for `Cc1nc2sc3c(N)n[nH]c3c2c(C)c1Cl` [Compound 141, 7-chloro-6,8-dimethyl-1H-pyrazolo[3′,4′:4,5]thieno[2,3-b]pyridin-3-amine], the negative logarithm of the EC50 (pEC50) is listed as less than 5.00 and the concentration giving a half-maximal response (EC50) is greater than 10 µM.
